Laboratory results published in ChEMBL document CHEMBL1151936, “Using peptidyl aldehydes in activity-based proteomics” (Bioorg Med Chem Lett, 2009).
Activity calls are given as the source filed them. The rule behind the calls is not given here.

target: T1, Prolyl endopeptidase (Homo sapiens) (UniProt P48147); test: Displacement of fluorophosphonate rhodamine from human cloned prolyl oligopeptidase expressed in Escherichia coli at 5 to 100 uM by SDS-PAGE
T1 sequence (whole entry): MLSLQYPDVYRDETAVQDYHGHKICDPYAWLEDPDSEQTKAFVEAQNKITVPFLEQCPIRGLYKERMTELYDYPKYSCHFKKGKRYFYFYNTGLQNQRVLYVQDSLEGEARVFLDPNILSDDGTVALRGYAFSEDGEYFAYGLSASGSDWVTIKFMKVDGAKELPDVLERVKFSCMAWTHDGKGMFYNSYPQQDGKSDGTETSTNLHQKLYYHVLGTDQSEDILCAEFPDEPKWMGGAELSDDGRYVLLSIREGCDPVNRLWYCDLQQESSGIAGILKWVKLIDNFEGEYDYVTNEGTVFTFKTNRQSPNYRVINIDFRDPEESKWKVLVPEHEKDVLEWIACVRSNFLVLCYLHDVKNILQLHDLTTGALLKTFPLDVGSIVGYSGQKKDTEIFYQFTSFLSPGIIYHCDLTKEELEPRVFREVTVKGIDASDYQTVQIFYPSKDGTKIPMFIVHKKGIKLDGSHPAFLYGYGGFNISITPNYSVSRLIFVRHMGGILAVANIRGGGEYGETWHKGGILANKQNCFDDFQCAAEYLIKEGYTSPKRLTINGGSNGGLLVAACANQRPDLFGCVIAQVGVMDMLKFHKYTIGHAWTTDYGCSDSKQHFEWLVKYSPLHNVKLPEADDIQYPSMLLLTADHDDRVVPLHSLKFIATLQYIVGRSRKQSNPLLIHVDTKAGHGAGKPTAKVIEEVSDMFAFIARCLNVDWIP

Activity | SMILES
Active | C#CCCCC(=O)N[C@@H](Cc1ccc(C(=O)c2ccccc2)cc1)C(=O)N1CCC[C@H]1C(=O)N1CCC[C@H]1C=O
Active | C#CCCCC(=O)N[C@@H](Cc1ccc(C(=O)c2ccccc2)cc1)C(=O)NCCOCCOCCOCCOCC(=O)N1CCC[C@H]1C(=O)N1CCC[C@H]1C=O
Active | C#CCCCC(=O)N[C@@H](Cc1ccc(C(=O)c2ccccc2)cc1)C(=O)NCCCCCC(=O)N1CCC[C@H]1C(=O)N1CCC[C@H]1C=O
